In ChEMBL document CHEMBL1134106, “Novel heteroaryl replacements of aromatic 3-tetrafluoroethoxy substituents in trifluoro-3-(tertiaryamino)-2-propanols as potent inhibitors of cholesteryl ester transfer protein” (Bioorg Med Chem Lett, 2001) one finds IC50 data, which are given here for 5 molecules.

In experiment [1] the target is T1, Cholesteryl ester transfer protein (Homo sapiens, UniProt P11597).
T1 sequence (P11597 whole entry): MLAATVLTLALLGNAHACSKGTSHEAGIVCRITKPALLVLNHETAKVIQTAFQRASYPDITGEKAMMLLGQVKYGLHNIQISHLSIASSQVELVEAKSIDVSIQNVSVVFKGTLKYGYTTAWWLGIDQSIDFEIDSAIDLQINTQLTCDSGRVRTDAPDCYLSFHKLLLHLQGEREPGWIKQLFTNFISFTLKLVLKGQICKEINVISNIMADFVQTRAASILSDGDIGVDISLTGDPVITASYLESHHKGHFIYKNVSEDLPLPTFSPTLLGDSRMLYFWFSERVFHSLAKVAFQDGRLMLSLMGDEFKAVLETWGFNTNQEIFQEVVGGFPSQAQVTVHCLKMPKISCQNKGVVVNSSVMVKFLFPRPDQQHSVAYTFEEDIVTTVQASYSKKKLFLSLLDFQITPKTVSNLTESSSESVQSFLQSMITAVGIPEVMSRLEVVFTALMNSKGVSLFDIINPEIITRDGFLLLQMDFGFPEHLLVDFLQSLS
Briefly: Inhibition of recombinant human CETP mediated transfer of [3H]cholesteryl ester from HDL to LDL.

The target in experiment [2] is T1, Cholesteryl ester transfer protein. Kind of experiment: In vitro human CETP inhibitory activity assessed by measuring the rate of [3H]cholesteryl ester ([3H]CE) from HDL donor particles to LDL acceptor particles using human serum by serum transfer assay.

`OC(CN(Cc1cccc(-c2cccnc2)c1)c1cccc(Oc2ccccc2)c1)C(F)(F)F` (configuration not stated): the IC50 (as a rule, the concentration at which inhibition is half-maximal) in experiment [1] was determined as 14.3 µM.

In the case of `OC(CN(Cc1cccc(-c2cccs2)c1)c1cccc(Oc2ccccc2)c1)C(F)(F)F` (configuration not stated), the figures for the IC50 in experiment [1] and in experiment [2] were 1.12 µM and 83 µM, respectively.

Turning to `Cc1ccc(CN(CC(O)C(F)(F)F)c2cccc(Oc3ccccc3)c2)cc1-c1ccco1` (configuration not stated), the half-maximal inhibitory concentration (IC50) in experiment [1] came to 3.96 µM.

With `OC(CN(Cc1ccc(F)c(-c2ccco2)c1)c1cccc(Oc2ccccc2)c1)C(F)(F)F` (configuration not stated), in experiment [1], the IC50 was 0.72 µM.

Turning to `OC(CN(Cc1cccc(-c2ccccc2)c1)c1cccc(Oc2ccccc2)c1)C(F)(F)F` (configuration not stated), the 50% inhibitory concentration (IC50) amounted to 4.42 µM in experiment [1] and 47 µM in experiment [2].
